Experimental data from patent US20220177490A1, “COMPOUNDS HAVING BOTH EFFECTS OF BET BROMODOMAIN PROTEIN INHIBITION AND PD-L1 GENE REGULATION” (priority 2019, published 2022).
Where two headings read alike, the source gives them in different places. Blank lines part the entries; values can stand above or below the molecule they belong to.

Key:
BRD4-1 (BRD4 BD1) = molecular target: T1, BRD4-1 (BRD4 BD1) (Homo sapiens, UniProt O60885); test: AlphaScreen binding assay of BRD4 biochemical activity (BD1); conditions: BD1, first value of cell; 10 concentrations, single well, initial 10 μM, 3-fold dilution
T1 construct: BRD4 (BD1, BD2)
Procedure: (§1) Test 1: IC50 characterization of the compounds at 10 concentrations.
(§2) The compounds were evaluated for IC50 against two BRD (BRD4-1, BRD4-2) at 10 concentrations, single well.
(§3) Buffer composition for BRD: 50 mM HEPES-HCl, pH7.5, 100 mM NaCl, 0.1% BSA, 0.05% CHAPS, and 1% DMSO.
(§4) Assay: AlphaScreen binding assay (Ex/Em=680/520-620 nm)
(§5) 2.1 4×BRD was added into wells of a reaction plate, except for control wells without BRD, in which BRD was replaced with a buffer.
(§6) 2.2 A solution of the compounds in 100% DMSO was added to the BRD mixture using Acoustic Technology (Echo550, nanoliter level). The mixture was centrifuged, shaken gently at room temperature, and pre-incubated for 30 minutes.
(§7) 2.3 4× ligand was added, and the mixture was centrifuged and shaken.
(§8) 2.4 The mixture was shaken gently and incubated at room temperature for 30 minutes.
(§9) 2.5 4× donor beads were added in the dark, and the mixture was centrifuged and shaken.
(§10) 2.6 4× acceptor beads were added in the dark, and the mixture was centrifuged and shaken gently in the dark for 60 minutes.
(§11) 2.7 The Alpha assay was carried out using Enspire (Ex/Em=680/520-620 nm)
(§12) The four-parameter fitting was performed by GraphPadPrism4 software using the following formula to obtain an IC50 fitting curve:
(§13) Y=minimum+(maximum−minimum)/(1+10^((Log IC50−X)*HillSplope))
(§14) Prism settings: 4-parameter dose-response curve (with variable slope), constrained; minimum=0, maximum=less than 120

BRD4-2 (BRD4 BD2) = molecular target: T2, BRD4-2 (BRD4 BD2) (Homo sapiens, UniProt O60885); test: AlphaScreen binding assay of BRD4 biochemical activity (BD2); conditions: BD2, second value of cell; 10 concentrations, single well, initial 10 μM, 3-fold dilution
T2 construct: BRD4 (BD1, BD2)
Procedure: as §1, §2, §3, §4, §5, §6, §7, §8, §9, §10, §11, §12, §13, §14

[1] = test system: Mouse colon cancer MC38 cells; test: In vivo efficacy in transplanted tumor model of MC38 mouse colon cancer cells; conditions: C57BL/6 mice, 18 days of administration
Procedure: Mouse colon cancer MC38 cells (Art. No. HYC3401) were cultured in vitro in single layer under the conditions of DMEM containing 10% fetal bovine serum and 37° C. 5% CO2 incubator. Trypsin-EDTA was used for routine digestion and passage. When the cells were in exponential growth phase and the saturation was 80%-90%, the cells were collected and counted.
Cells were re-suspended in DPBS at a density of […]. 0.1 mL DPBS (containing 2×10^5 MC38 cells) was subcutaneously inoculated into the right back of each mouse. When average tumor volume reached ˜63 mm^3, mice were randomly grouped and administered according to tumor volume.
Tumor diameter was measured with vernier caliper three times a week. The calculation formula of tumor volume was as follows: V=0.5×a×b^2, wherein a and b indicated the long and short diameters of a tumor, respectively.
The anti-tumor effect of the compounds was evaluated using TGI (%) or relative tumor proliferation rate T/C (%). Relative tumor proliferation rate T/C (%)=TRTV;/CRTV×100 (TRTV: average RTV for treatment group; CRTV: average RTV for negative control group). According to the results of tumor measurement, relative tumor volume (RTV) was calculated using the formula: RTV=Vt/V0, wherein V0 is the tumor volume measured when grouped and administered (i.e., D0), Vt is the tumor volume at a certain measurement, and the data of TRTV and CRTV on the same day were used.
TGI (%) reflects the rate of tumor growth inhibition. TGI (%)=[(1−(Average tumor volume at the end of administration for a treatment group−Average tumor volume at the beginning of administration for the treatment group))/(Average tumor volume at the end of treatment for a vehicle control group-Average tumor volume at the beginning of treatment for the vehicle control group)]×100.
Statistical analysis was performed using SPSS software based on the relative tumor volume and tumor weight at the end of the test. T-test was used for comparison between two groups and one-way ANOVA was used for comparison among three or more groups. If variance was not neat (significant difference was found in F value), Games-Howell method was used for test. P<0.05 was considered a significant difference.

[2] = test system: PAN02 mouse pancreatic cancer cell line; test: In vivo efficacy in PAN02 tumor model; conditions: C57BL/6 mice, 30 mg/kg intragastrically, day 32
Procedure: The anti-tumor effect of the test compound was investigated on an in vivo tumor model of mouse pancreatic cancer PAN02.
Female C57BL/6 mice were subcutaneously inoculated with PAN02 mouse pancreatic cancer cell line, grouped according to body weight and tumor volume on the 8th day after inoculation, and administered as described below.
(§15) Group 1 (control group): Vehicle control was administered intragastrically at a dose of 0.1 mL/10 g body weight twice a day.
(§16) Group 2: Compound 4 dissolved in (5% DMSO+40% PEG 400+10% Solutol+45% DDH2O) was administered intragastrically at a dose of 30 mg/kg body weight.
(§17) During the assay, the body weight and tumor volume of mice were measured three times a week, and the tumor volume was calculated according to the formula of length×width^2/2. The tumor proliferation rate and tumor inhibition rate were calculated according to the formula: tumor proliferation rate=tumor volume of treatment group/tumor volume of control group×100%; tumor inhibition rate=(tumor volume of control group−tumor volume of treatment group)/tumor volume of control group.
(§18) Student's t-test was used for statistical analysis between groups, and p<0.05 indicated significant difference.

[3] = test system: EMT-6 mouse breast cancer cell line; test: Anti-tumor activity in EMT-6 in vivo tumor model; conditions: EMT-6 model, BALB/C mice, 30 mg/kg intragastrically
Procedure: The anti-tumor effect of the test compound was investigated on an in vivo tumor model of mouse breast cancer EMT-6.
Female BALB/C mice were subcutaneously inoculated with an EMT-6 mouse breast cancer cell line, grouped according to body weight and tumor volume on the 8th day after inoculation, and administered as described below.
as §15, §16
as §17, with “group-tumor” for “group−tumor”
as §18

[4] = Pharmacokinetic study in male CD-1 mice, LC/MS/MS of plasma; format: in vivo; conditions: mouse; for Vd: read-out: Apparent volume of distribution Vdss; for AUC(0-inf): read-out: Area under curve (0-inf) AUC0-inf; for AUC(0-t): read-out: Area under curve (0-t) AUC0-last; for clearance: read-out: Clearance rate Cl; for half-life: read-out: Half life period T½ (converted); for Cmax: read-out: Drug concentration in blood Cmax; for Tmax: read-out: Peak arrival time Tmax; for bioavailability: read-out: bioavailability F
Procedure: 1.1 Male CD-1 mice were used as test animals, and the LC/MS/MS method was used to determine the drug concentration in plasma of mice at different times after intravenous and intragastric administration of the test compounds. The pharmacokinetic behavior of the compounds of the present disclosure in mice was studied, and the pharmacokinetic characteristics of the compounds of the present disclosure were evaluated.
2.2 Assay animals: Eight healthy adult male CD-1 mice, which were divided into four groups (two for each group) according to the principle of similar body weight. The animals were purchased from Shanghai Sippe-Bk Lab Animal Co., Ltd., with animal production license No. of SCXK (Shanghai) 2018-0006.
A proper amount of samples were weighed, to which a solvent was added. The mixture was stirred with ultrasound to a clear state for intravenous administration.
A proper amount of samples were weighed, to which a solvent was added. The mixture was stirred with ultrasound to a clear state for intragastric administration.
Eight male CD-1 mice were divided into four groups. After one-night fasting, two groups were administered intravenously, and the remaining two groups were administered intragastrically.
After intravenous administration of the test compounds to male CD-1 mice, […] of blood was collected at 0.0833, 0.25, 0.5, 1, 2, 4, 8, and 24 hours, and placed in commercial tubes containing EDTA-K2. After intragastric administration of the test compounds, […] of blood was collected at 0.25, 0.5, 1, 2, 4, 6, 8, and 24 hours, and placed in commercial tubes containing EDTA-K2. The tubes were centrifuged at 3000 g for 15 minutes to separate plasma and stored at −60° C. Animals were fed 2 hours after the administration.
The LC/MS/MS method was used to determine the content of the test compounds in the plasma of mice after intravenous and intragastric administration. The linear range of the method was 2.00-6000 nmol/L; The plasma samples were analyzed after protein precipitation with acetonitrile.

Structure (SMILES): Cc1sc2c(c1C)C(c1ccc(Cl)cc1)=N[C@@H](CC(=O)Nc1ccc3c(c1)CO/C3=N\OC(C)C)c1nnc(C)n1-2 [Compound 8]
IC50 (BRD4-1 (BRD4 BD1)): 85.7 nM
IC50 (BRD4-2 (BRD4 BD2)): 15 nM

Structure (SMILES): Cc1sc2c(c1C)C(c1ccc(Cl)cc1)=N[C@@H](CC(=O)Nc1ccc3c(c1)CO/C3=N\C1COC1)c1nnc(C)n1-2 [Compound 7]
IC50 (BRD4-1 (BRD4 BD1)): 28.7 nM
IC50 (BRD4-2 (BRD4 BD2)): 6.06 nM

Structure (SMILES): CO/N=C1\OCc2cc(NC(=O)C[C@@H]3N=C(c4ccc(Cl)cc4)c4c(sc(C)c4C)-n4c(C)nnc43)ccc21 [Compound 4]
TGI ([1]; 20 mpk p.o. BID): 85.90%
TGI ([1]; 50 mpk p.o. BID): 97.66%
IC50 (BRD4-1 (BRD4 BD1)): 28 nM
IC50 (BRD4-2 (BRD4 BD2)): 6.6 nM
tumor proliferation rate [2]: 37.61%
tumor proliferation rate ([3]; Day 19): 23.92%
tumor proliferation rate ([3]; end of the assay): 36.79%
Vd ([4]; intravenous, 1 mg/kg): 1.84 L/kg
AUC(0-inf) ([4]; intravenous, 1 mg/kg): 2.91 µM·h
AUC(0-t) ([4]; intravenous, 1 mg/kg): 2.71 µM·h
clearance ([4]; intravenous, 1 mg/kg): 10.2 mL/min/kg
half-life ([4]; intravenous, 1 mg/kg): 2.05 h
AUC(0-t) ([4]; po, intragastric, 2 mg/kg): 1.61 µM·h
Cmax ([4]; po, intragastric, 2 mg/kg): 262 nM
Tmax ([4]; po, intragastric, 2 mg/kg): 4 h
bioavailability ([4]; po, intragastric, 2 mg/kg): 29.6%

Structure (SMILES): COCCO/N=C1\OCc2cc(NC(=O)C[C@@H]3N=C(c4ccc(Cl)cc4)c4c(sc(C)c4C)-n4c(C)nnc43)ccc21 [Compound 10]
IC50 (BRD4-1 (BRD4 BD1)): 27 nM
IC50 (BRD4-2 (BRD4 BD2)): 3.56 nM

Structure (SMILES): Cc1sc2c(c1C)C(c1ccc(Cl)cc1)=N[C@@H](CC(=O)Nc1ccc3c(c1)CO/C3=N\OC(F)F)c1nnc(C)n1-2 [Compound 11]
TGI ([1]; 20 mpk p.o. BID): 54.16%
TGI ([1]; 50 mpk p.o. BID): 84.11%
IC50 (BRD4-1 (BRD4 BD1)): 72.2 nM
IC50 (BRD4-2 (BRD4 BD2)): 3.92 nM
Vd ([4]; intravenous, 1 mg/kg): 2.21 L/kg
AUC(0-inf) ([4]; intravenous, 1 mg/kg): 2.44 µM·h
AUC(0-t) ([4]; intravenous, 1 mg/kg): 2.26 µM·h
clearance ([4]; intravenous, 1 mg/kg): 11.5 mL/min/kg
half-life ([4]; intravenous, 1 mg/kg): 2.16 h
AUC(0-t) ([4]; po, intragastric, 2 mg/kg): 1.31 µM·h
Cmax ([4]; po, intragastric, 2 mg/kg): 115 nM
Tmax ([4]; po, intragastric, 2 mg/kg): 7 h
bioavailability ([4]; po, intragastric, 2 mg/kg): 29%

Structure (SMILES): Cc1sc2c(c1C)C(c1ccc(Cl)cc1)=N[C@@H](CC(=O)Nc1ccc3c(c1)CO/C3=N\N(C)C)c1nnc(C)n1-2 [Compound 13]
IC50 (BRD4-1 (BRD4 BD1)): 13.1 nM
IC50 (BRD4-2 (BRD4 BD2)): 2.26 nM

Second part, the molecule after the results:

IC50 (BRD4-1 (BRD4 BD1)): 27 nM
IC50 (BRD4-2 (BRD4 BD2)): 4.45 nM
Structure (SMILES): Cc1sc2c(c1C)C(c1ccc(Cl)cc1)=N[C@@H](CC(=O)Nc1ccc3c(c1)CC1CON=C31)c1nnc(C)n1-2 (some centres unmarked) [Compound 3]

IC50 (BRD4-1 (BRD4 BD1)): 48.8 nM
IC50 (BRD4-2 (BRD4 BD2)): 7.4 nM
Structure (SMILES): Cc1sc2c(c1C)C(c1ccc(Cl)cc1)=N[C@@H](CC(=O)Nc1ccc3c(c1)CO/C3=N\O)c1nnc(C)n1-2 [Compound 1]

IC50 (BRD4-1 (BRD4 BD1)): 48.2 nM
IC50 (BRD4-2 (BRD4 BD2)): 6.23 nM
Structure (SMILES): Cc1sc2c(c1C)C(c1ccc(Cl)cc1)=N[C@@H](CC(=O)Nc1ccc3c(c1)CO/C3=N\C#N)c1nnc(C)n1-2 [Compound 2]

IC50 (BRD4-1 (BRD4 BD1)): 18.1 nM
IC50 (BRD4-2 (BRD4 BD2)): 1.99 nM
Structure (SMILES): Cc1sc2c(c1C)C(c1ccc(Cl)cc1)=N[C@@H](CC(=O)Nc1ccc3c(c1)Cn1ccnc1-3)c1nnc(C)n1-2 [Compound 12]

IC50 (BRD4-1 (BRD4 BD1)): 43.6 nM
IC50 (BRD4-2 (BRD4 BD2)): 7 nM
Structure (SMILES): CCO/N=C1\OCc2cc(NC(=O)C[C@@H]3N=C(c4ccc(Cl)cc4)c4c(sc(C)c4C)-n4c(C)nnc43)ccc21 [Compound 9]
